Source: patent publication US9439428B2, “Herbicidal compounds” (SYNGENTA LIMITED, priority 2011, dated 2016)

Legend:
Type in all cases: in vivo
Conditions in all cases: 1000 g/h, evaluated after 13 days, five point scale
[1] = tested on: Setaria faberi (SETFA); test: Post-emergence herbicidal glasshouse test
Experimental: (§1) Seeds of a variety of test species are sown in standard soil in pots (Alopecurus myosuroides (ALOMY), Setaria faberi (SETFA), Echinochloa crus-galli (ECHCG), Abuthilon theophrasti (ABUTH) and Amaranthus retoflexus (AMARE)). After cultivation for one day (pre-emergence) or after 8 days cultivation (post-emergence) under controlled conditions in a glasshouse (at 24/16° C., day/night; 14 hours light; 65% humidity), the plants are sprayed with an aqueous spray solution derived from the formulation of the technical active ingredient in acetone/water (50:50) solution containing 0.5% Tween 20 (polyoxyethelyene sorbitan monolaurate, CAS RN 9005-64-5). Compounds ae applied at 1000 g/h. The test plants are then grown in a glasshouse under controlled conditions in a glasshouse (at 24/16° C., day/night; 14 hours light; 65% humidity) and watered twice daily. After 13 days for pre and post-emergence, the test is evaluated for the percentage herbicidal damage caused to the plant. The biological activities are shown in the following table on a five point scale (5=80-100% damage; 4=60-79% damage; 3=40-59% damage; 2=20-39% damage; 1=0-19% damage).

[2] = tested on: Alopecurus myosuroides (ALOMY); test: Post-emergence herbicidal glasshouse test
Experimental: as §1

[3] = tested on: Amaranthus retoflexus (AMARE); test: Post-emergence herbicidal glasshouse test
Experimental: as §1

[4] = tested on: Abuthilon theophrasti (ABUTH); test: Post-emergence herbicidal glasshouse test
Experimental: as §1

[5] = tested on: Echinochloa crus-galli (ECHCG); test: Post-emergence herbicidal glasshouse test
Experimental: as §1

[6] = tested on: Setaria faberi (SETFA); test: Pre-emergence herbicidal glasshouse test
Experimental: as §1

[7] = tested on: Alopecurus myosuroides (ALOMY); test: Pre-emergence herbicidal glasshouse test
Experimental: as §1

[8] = tested on: Amaranthus retoflexus (AMARE); test: Pre-emergence herbicidal glasshouse test
Experimental: as §1

[9] = tested on: Abuthilon theophrasti (ABUTH); test: Pre-emergence herbicidal glasshouse test
Experimental: as §1

[10] = tested on: Echinochloa crus-galli (ECHCG); test: Pre-emergence herbicidal glasshouse test
Experimental: as §1

O=C1CCCC(=O)C1C(=O)c1ccnn(-c2ccccc2)c1=O [Compound 1.1, 2-(3-Oxo-2-phenyl-2,3-dihydropyridazine-4-carbonyl)-cyclohexane-1,3-dione]
5 (5=80-100% damage): percentage herbicidal damage, SETFA, POST Application [1] | percentage herbicidal damage, ALOMY, POST Application [2] | percentage herbicidal damage, AMARE, POST Application [3] | percentage herbicidal damage, ABUTH, POST Application [4] | percentage herbicidal damage, ECHCG, POST Application [5] | percentage herbicidal damage, SETFA, PRE Application [6] | percentage herbicidal damage, ALOMY, PRE Application [7] | percentage herbicidal damage, AMARE, PRE Application [8] | percentage herbicidal damage, ABUTH, PRE Application [9] | percentage herbicidal damage, ECHCG, PRE Application [10]

Cc1cc(C(=O)C2C(=O)CCCC2=O)c(=O)n(-c2ccccc2)n1 [Compound 1.2, 2-(6-Methyl-3-oxo-2-phenyl-2,3-dihydropyridazine-4-carbonyl)-cyclohexane-1,3-dione]
5 (5=80-100% damage): percentage herbicidal damage, SETFA, POST Application [1] | percentage herbicidal damage, ALOMY, POST Application [2] | percentage herbicidal damage, AMARE, POST Application [3] | percentage herbicidal damage, ABUTH, POST Application [4] | percentage herbicidal damage, ECHCG, POST Application [5] | percentage herbicidal damage, SETFA, PRE Application [6] | percentage herbicidal damage, ALOMY, PRE Application [7] | percentage herbicidal damage, AMARE, PRE Application [8] | percentage herbicidal damage, ABUTH, PRE Application [9] | percentage herbicidal damage, ECHCG, PRE Application [10]

COc1ccc(-n2nc(C)cc(C(=O)C3C(=O)CCCC3=O)c2=O)cc1 [Compound 1.3]
5 (5=80-100% damage): percentage herbicidal damage, SETFA, POST Application [1] | percentage herbicidal damage, ALOMY, POST Application [2] | percentage herbicidal damage, AMARE, POST Application [3] | percentage herbicidal damage, ABUTH, POST Application [4] | percentage herbicidal damage, ECHCG, POST Application [5] | percentage herbicidal damage, SETFA, PRE Application [6] | percentage herbicidal damage, ALOMY, PRE Application [7] | percentage herbicidal damage, AMARE, PRE Application [8] | percentage herbicidal damage, ABUTH, PRE Application [9] | percentage herbicidal damage, ECHCG, PRE Application [10]

COc1ccc(-n2nc(C)cc(C(=O)C3C(=O)C4CCC(C4)C3=O)c2=O)cc1 (stereo not drawn) [Compound 1.4]
5 (5=80-100% damage): percentage herbicidal damage, SETFA, POST Application [1] | percentage herbicidal damage, ALOMY, POST Application [2] | percentage herbicidal damage, AMARE, POST Application [3] | percentage herbicidal damage, ABUTH, POST Application [4] | percentage herbicidal damage, ECHCG, POST Application [5] | percentage herbicidal damage, SETFA, PRE Application [6] | percentage herbicidal damage, ALOMY, PRE Application [7] | percentage herbicidal damage, AMARE, PRE Application [8] | percentage herbicidal damage, ABUTH, PRE Application [9] | percentage herbicidal damage, ECHCG, PRE Application [10]

COc1ccc(-n2nc(C)cc(C(=O)C3C(=O)CC(C)CC3=O)c2=O)cc1 (stereo not drawn) [Compound 1.5]
5 (5=80-100% damage): percentage herbicidal damage, SETFA, POST Application [1] | percentage herbicidal damage, ALOMY, POST Application [2] | percentage herbicidal damage, AMARE, POST Application [3] | percentage herbicidal damage, ABUTH, POST Application [4] | percentage herbicidal damage, ECHCG, POST Application [5] | percentage herbicidal damage, SETFA, PRE Application [6] | percentage herbicidal damage, ALOMY, PRE Application [7] | percentage herbicidal damage, AMARE, PRE Application [8] | percentage herbicidal damage, ABUTH, PRE Application [9] | percentage herbicidal damage, ECHCG, PRE Application [10]

Cc1cc(C(=O)C2C(=O)CC(C)CC2=O)c(=O)n(-c2ccccc2C)n1 (stereo not drawn) [Compound 1.6]
5 (5=80-100% damage): percentage herbicidal damage, SETFA, POST Application [1] | percentage herbicidal damage, ALOMY, POST Application [2] | percentage herbicidal damage, AMARE, POST Application [3] | percentage herbicidal damage, ABUTH, POST Application [4] | percentage herbicidal damage, ECHCG, POST Application [5] | percentage herbicidal damage, SETFA, PRE Application [6] | percentage herbicidal damage, ALOMY, PRE Application [7] | percentage herbicidal damage, AMARE, PRE Application [8] | percentage herbicidal damage, ABUTH, PRE Application [9] | percentage herbicidal damage, ECHCG, PRE Application [10]

Cc1cc(C(=O)C2C(=O)C3CCC(C3)C2=O)c(=O)n(-c2ccccc2)n1 (stereo not drawn) [Compound 1.7]
5 (5=80-100% damage): percentage herbicidal damage, SETFA, POST Application [1] | percentage herbicidal damage, ALOMY, POST Application [2] | percentage herbicidal damage, AMARE, POST Application [3] | percentage herbicidal damage, ABUTH, POST Application [4] | percentage herbicidal damage, ECHCG, POST Application [5] | percentage herbicidal damage, SETFA, PRE Application [6] | percentage herbicidal damage, ALOMY, PRE Application [7] | percentage herbicidal damage, AMARE, PRE Application [8] | percentage herbicidal damage, ABUTH, PRE Application [9] | percentage herbicidal damage, ECHCG, PRE Application [10]

Cc1cc(C(=O)C2C(=O)C(C)(C)C(=O)C(C)(C)C2=O)c(=O)n(-c2ccccc2)n1 [Compound 1.8]
5 (5=80-100% damage): percentage herbicidal damage, SETFA, POST Application [1] | percentage herbicidal damage, ALOMY, POST Application [2] | percentage herbicidal damage, AMARE, POST Application [3] | percentage herbicidal damage, ABUTH, POST Application [4] | percentage herbicidal damage, ECHCG, POST Application [5] | percentage herbicidal damage, SETFA, PRE Application [6] | percentage herbicidal damage, ALOMY, PRE Application [7] | percentage herbicidal damage, AMARE, PRE Application [8] | percentage herbicidal damage, ABUTH, PRE Application [9] | percentage herbicidal damage, ECHCG, PRE Application [10]

Cc1cc(C(=O)C2C(=O)CC(C)CC2=O)c(=O)n(-c2ccccc2)n1 (stereo not drawn) [Compound 1.9]
5 (5=80-100% damage): percentage herbicidal damage, SETFA, POST Application [1] | percentage herbicidal damage, ALOMY, POST Application [2] | percentage herbicidal damage, AMARE, POST Application [3] | percentage herbicidal damage, ABUTH, POST Application [4] | percentage herbicidal damage, ECHCG, POST Application [5] | percentage herbicidal damage, SETFA, PRE Application [6] | percentage herbicidal damage, ALOMY, PRE Application [7] | percentage herbicidal damage, AMARE, PRE Application [8] | percentage herbicidal damage, ABUTH, PRE Application [9] | percentage herbicidal damage, ECHCG, PRE Application [10]
